Legend:
[1] = Inhibition of IL1aplha-induced PGE2 production in bovine articular chondrocytes at 5 uM incubated for 48 hrs by ELISA relative to control; type: functional; conditions: Bos taurus
[2] = molecular target: Cannabinoid receptor 2 (Homo sapiens) (UniProt P34972); experiment: Agonist activity at human CB2 receptor assessed as reduction in […] level at 20 uM incubated for 10 mins relative to control
[3] = molecular target: Cannabinoid receptor 2 (Homo sapiens) (UniProt P34972); experiment: Agonist activity at human CB2 receptor assessed as inhibition of capsaicin-induced depolarization at 20 uM incubated for 10 mins relative to control
[4] = species: Cavia porcellus; experiment: Agonist activity at Dunkin Hartley guinea pig CB2 receptor assessed as reduction in […] level at 20 uM incubated for 10 mins relative to control
[5] = species: Cavia porcellus; experiment: Agonist activity at Dunkin Hartley guinea pig CB2 receptor assessed as inhibition of capsaicin-induced depolarization at 20 uM incubated for 10 mins relative to control
[6] = test system: Mus musculus; experiment: Reduction in anandamide production in athymic CD-1 nude mouse xenografted with human U87 cells at 0.5 mg/mouse/day administered peritumorally for 5 days by RP-HPLC with fluorimetric detection method relative to control; type: functional; design: scale not given: the % may be the effect or the level left
[7] = test system: Mus musculus; experiment: Reduction in LTB4 production in athymic CD-1 nude mouse xenografted with human U87 cells at 0.5 mg/mouse/day administered peritumorally for 5 days by RP-HPLC analysis relative to control; type: functional; design: scale not given: the % may be the effect or the level left
[8] = test system: Oryctolagus cuniculus; experiment: Reduction in intraocular pressure in rabbit applied topically relative to control; type: functional; design: scale not given: the % may be the effect or the level left
[9] = test system: J774; experiment: Inhibition of LPS-induced PGE2 production in mouse J774 cells at 10 uM incubated for 24 hrs by enzyme immunoassay relative to control; type: functional; conditions: J774, 24 h

Chain of Cannabinoid receptor 2 (Homo sapiens) (P34972 whole entry): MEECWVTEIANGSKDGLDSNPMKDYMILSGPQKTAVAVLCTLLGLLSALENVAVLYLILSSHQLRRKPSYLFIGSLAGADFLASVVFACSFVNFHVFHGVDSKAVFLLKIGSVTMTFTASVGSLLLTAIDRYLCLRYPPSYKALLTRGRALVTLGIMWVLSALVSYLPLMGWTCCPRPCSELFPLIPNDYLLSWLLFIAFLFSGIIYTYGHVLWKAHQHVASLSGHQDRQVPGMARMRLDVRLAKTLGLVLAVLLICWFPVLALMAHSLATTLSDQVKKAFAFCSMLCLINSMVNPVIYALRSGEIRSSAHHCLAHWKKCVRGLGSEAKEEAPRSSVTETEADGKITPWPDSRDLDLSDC

SMILES: CCCCCCC(C)(C)c1cc(O)c2c(c1)OC(C)(C)[C@@H]1CCC(CO)=C[C@@H]21
- inhibition at 5 µM [1]: > 50%

SMILES: O=C(NCc1ccncc1)c1cnc(Nc2cccc(Cl)c2)nc1C(F)(F)F
- Imax [2]: 40%
- Imax [3]: 40%
- Imax [4]: 40%
- Imax [5]: 40%

SMILES: C=C(C)[C@@H]1CCC(C)=C[C@H]1c1c(O)cc(CCCCC)cc1O [CANNABIDIOL]
- Activity [6]: 30%
- Activity [7]: 25%

SMILES: CCCCCc1cc(O)c2c(c1)OC(C)(C)[C@@H]1CCC(C)=C[C@@H]21 [DRONABINOL]
- Activity [8]: 20 - 25%
- inhibition at 10 µM [9]: 60%

SMILES: Cc1c(C(=O)c2cccc3ccccc23)c2cccc3c2n1[C@H](CN1CCOCC1)CO3 [WIN-552122]
- inhibition at 5 µM [1]: > 50%

Reference: ChEMBL document CHEMBL4387731, “Eicosanoid mediation of cannabinoid actions” (2019)
